Among the data in ChEMBL document CHEMBL1130880, “Synthesis and in vitro cytotoxicity of C(20)(RS)-camptothecin analogues modified at both B (or A) and E ring” (Bioorg Med Chem Lett, 1998) are IC50 values, retold here.

What all share (assay type): functional, cell-based
In one experiment the test system is A 172. Put plainly: Compound was evaluated for in vitro antiproliferative activity against A172 human CNS cancer cell line.
The test system of another experiment is L1210. The experiment in a line: Compound was evaluated for in vitro antiproliferative activity against L1210 mouse leukemia cell line.
The subject of experiment [1] is KATO III stomach cancer cell line. Put plainly: Compound was evaluated for in vitro antiproliferative activity against KATO-III human gastric cancer cell line.
A further experiment relates to Caov-3 cell line. The experiment in a line: Compound was evaluated for in vitro antiproliferative activity against CAOV-3 human ovarian cancer cell line.
For another experiment, the system named is DLD-1. The experiment in a line: Compound was evaluated for in vitro antiproliferative activity against DLD-1 human colon cancer cell line.

As for `CCC1(O)C(=O)OCc2c1cc1n(c2=O)Cc2cc3ccccc3nc2-1` (configuration not stated), the 50% inhibitory concentration (IC50) in the experiment with A 172 came out at 29 nM; in the experiment with L1210, 35 nM; in experiment [1] it was 448 nM; with Caov-3 cell line it was 32 nM; in the experiment with DLD-1, 102 nM.
Turning to `CCOCOCCC1(O)C(=O)OCc2c1cc1n(c2=O)Cc2c-1nc1cc3c(cc1c2CCl)OCCO3` (configuration not stated), the concentration for half-maximal inhibition (IC50) in experiment [1] came out at 5920 nM; in the experiment with Caov-3 cell line, 3760 nM; with DLD-1, 3880 nM.
For `CCOCOCCC1(O)C(=O)OCc2c1cc1n(c2=O)Cc2c-1nc1ccccc1c2CCNC(C)C` (configuration not stated), the 50% inhibitory concentration (IC50) with A 172 was 5460 nM; in the experiment with L1210 it was 14100 nM; in experiment [1], 4210 nM; in the experiment on Caov-3 cell line, 24 nM; in the experiment with DLD-1, 2100 nM.
For the compound `COCOCCC1(O)C(=O)OCc2c1cc1n(c2=O)Cc2cc3ccccc3nc2-1` (configuration not stated), the IC50 came out at 2620 nM with A 172; 440 nM with L1210; 320 nM in experiment [1]; 560 nM in the experiment on Caov-3 cell line; 1860 nM in the experiment with DLD-1.
In the case of `COCOCCC1(O)C(=O)OCc2c1cc1n(c2=O)Cc2c-1nc1cc3c(cc1c2CCl)OCCO3` (configuration not stated), the IC50 in the experiment with A 172 came out at 29 nM; with L1210 it was 307 nM; in experiment [1], 1460 nM; in the experiment on Caov-3 cell line, 3 nM; in the experiment on DLD-1, 108 nM.
With `O=C1OCc2c(cc3n(c2=O)Cc2c-3nc3cc4c(cc3c2CCl)OCCO4)C1(O)CCO` (configuration not stated), the IC50 came out at 391 nM in the experiment on A 172; 898 nM in the experiment on L1210; 135 nM in experiment [1]; 10 nM in the experiment on Caov-3 cell line; 55 nM with DLD-1.
As to `CCC1(O)C(=O)OCc2c1cc1n(c2=O)Cc2c-1nc1ccccc1c2CCNC(C)C` (configuration not stated), the 50% inhibitory concentration (IC50) in the experiment on A 172 was 167 nM; in the experiment on L1210, 460 nM; in experiment [1], 623 nM; in the experiment with Caov-3 cell line, 4 nM; in the experiment with DLD-1, 276 nM.
With `CC(C)NCCc1c2c(nc3ccccc13)-c1cc3c(c(=O)n1C2)COC(=O)C3(O)CCO` (configuration not stated), the IC50 was 3560 nM with A 172; 6730 nM in the experiment on L1210; 4400 nM in experiment [1]; 483 nM in the experiment on Caov-3 cell line; 619 nM with DLD-1.
As to `CCC1(O)C(=O)OCc2c1cc1n(c2=O)Cc2c-1nc1cc3c(cc1c2CCl)OCCO3` (configuration not stated), the 50% inhibitory concentration (IC50) in the experiment on A 172 stood at 54 nM; in the experiment on L1210, 14000 nM; in experiment [1], 6110 nM; in the experiment on Caov-3 cell line, 87 nM; in the experiment on DLD-1, 2780 nM.
For the compound `COCOCCC1(O)C(=O)OCc2c1cc1n(c2=O)Cc2c-1nc1ccccc1c2CCNC(C)C` (configuration not stated), the IC50 in the experiment with A 172 stood at 12200 nM; in experiment [1], 3270 nM; with Caov-3 cell line, 91 nM; in the experiment with DLD-1, 549 nM.
